The text below walks through data of patent publication US7820624B2, “Peptide ligands” (ICH Productions Limited, priority 2003, dated 2010).

The test system of data set [1] is mouse Sca1-positive stem cells. The data set can be described thus: Adenoviral transduction of mouse Sca1+ve stem cells. It is filed as cell-based. On the procedure:
Mouse bone marrow cells were isolated as above and Sca1+ve cells were isolated using MACs Sca1 microbeads (Miltenyi Biotec, Bisley, U.K.). These cells were plated at 7×10^4 cells/500 μl in RPMI with Glutamax-1 containing 30% FCS and penicillin/streptomycin and the following cytokines murine SCF (50 ng/ml; Preprotech, London, UK), IL-6 (20 ng/ml; Preprotech, London, UK) and Flt3-L (10 ng/ml) (R&D Systems, Oxford, U. K.).
(§1) Day 6 dendritic cells (see Example 1(v) above), or mouse bone marrow derived dendritic cells or mouse Sca1+ve stem cells, see (i) and (ii) above, were plated at 5×10^4 cells per well in a 48 well plate in 500 μl complete medium and allowed to settle for 3 hours at 37° C. Transductions were carried out in complete media, with virus being added at 100,000 viral particles/cell for 24 hours. Cells were harvested by scraping, spun down at 650 g (2000 rpm) for 5 min, resuspended in 300 μl PBS, and kept on ice before analysis. Viral transduction as determined by percentage of GFP positive cells was measured by FACS analysis. […] Cells were then washed twice in PBS, trypsinised, triplicate wells pooled, spun down at 350×g for 5 min and resuspended in 300 μl PBS before analysis by flow cytometry where cell viability was to be measured, 10 μl 7AAD was added just prior to analysis.

For data set [2], the system named is human monocyte-derived immature dendritic cells. It counts as cell-based. The settings on record: 100,000 viral particles/cell. An excerpt: Ad5 particles with the DC-binding peptides incorporated into the HI loop of the fibre protein were produced essentially as described previously ^12. Complementary oligonucleotides encoding the peptide sequences SHVKLNS [SEQ. ID. NO.:29] (5′ CC GGAAGCCACGTGAAGCTGAACAGCG 3′ [SEQ. ID. NO.:58] and 5′ CC GGCGCTGTTCAGCTTCACGTG GCTT 3′[SEQ. ID. NO.:59]) or APSNSTA [SEQ. ID. NO.:15] (5′ CC GGAGCCCCCAGCAACAGCACCGCCG 3′ [SEQ. ID. NO.:61] and 5′ CC GGCGGCGGTGCTGTTGCTGGG GGCT 3′ [SEQ. ID. NO.:62]) were synthesized (Operon Technologies, Alameda Calif. U.S.A.). The oligo pairs were then kinased, annealed, and ligated into the unique BspE1 site of pDV137 ^12, an expression construct encoding an Ad5 fibre protein with a double point mutant (KO1) which blocks CAR binding and a linker/restriction site in the HI loop, to create pDV178 (SHVKLNS) and pDV179 (APSNSTA). Following sequence confirmation, the plasmids were used to trans-complement the fibre-deleted vector Ad5.GFP.δF^18 by transient transfection into 293 cells as described ^19. Viral particles were purified by freeze/thaw lysis and CsCl gradient centrifugation and dialyzed into 40 mM TRIS-pH 8.1/0.9% NaCl/10% glycerol and stored at −80° C. Virus was quantified by protein assay (BioRad, Hercules Calif., U.S.A.) against BSA standards and using the relation 1 μg viral protein=4×10^9 viral particles.
Retargeted adenoviruses carrying a peptide A or B were used for the transduction experiments described below. Wild type adenovirus type 5 and type 5 adenovirus having a KO1 fibre, all supplied by Dr Dan von Seggern, and as described in Nicklin 2001 Mol Ther 2001 Dec.; 4(6):534-42), were used as controls.
Day 6 dendritic cells (see Example 1(v) above), or mouse bone marrow derived dendritic cells or mouse Sca1+ve stem cells, see (i) and (ii) above, were plated at 5×10^4 cells per well in a 48 well plate in 500 μl complete medium and allowed to settle for 3 hours at 37° C. Transductions were carried out in complete media, with virus being added at 100,000 viral particles/cell for 24 hours. Cells were harvested by scraping, spun down at 650 g (2000 rpm) for 5 min, resuspended in 300 μl PBS, and kept on ice before analysis. Viral transduction as determined by percentage of GFP positive cells was measured by FACS analysis. To measure percentage viability, 10 μl of 7-amino-actinomycin D (7AAD; Sigma, Poole, Dorset) was added immediately prior to analysis. Viral transduction of macrophages was carried out at 10,000 particles/cell in medium containing 2.5% FCS. For other cell types, cells were seeded overnight at 5×10^4 cells per well in 24-well plates in the appropriate media. Adenovirus was added in OptiMEM at 10,000 viral particles/cell, 1 ml per well in triplicate and incubated for 24 h at 37° C. Cells were then washed twice in PBS, trypsinised, triplicate wells pooled, spun down at 350×g for 5 min and resuspended in 300 μl PBS before analysis by flow cytometry where cell viability was to be measured, 10 μl 7AAD was added just prior to analysis.
Cells were pooled from three separate transduction experiments for the calculation of results.

The subject of data set [3] is day 6 immature dendritic cells. Put plainly: Maturation of adenovirus-transduced dendritic cells in response to LPS (marker flow cytometry). It is filed as cell-based, human. As to conditions: LPS 50 ng/ml; virus 100,000 particles per cell. On the procedure:
Day 6 immature dendritic cells were infected with retargeted Ad or Ad5 at 100,000 particles per cell in complete medium for 24 hours, with E. coli 026:B6 lipopolysaccharide (LPS) added following 3 hours incubation at a concentration of 50 ng/ml. As controls, dendritic cells were either incubated in complete medium for 24 hours or matured by the addition of LPS in complete medium for 24 hours, In all samples IL-4 and GM-CSF were present in the complete medium at 25 ng/ml and 100 ng/ml respectively. Cells were then phenotyped by staining as follows: a minimum of 5×10^4 cells in a volume of less than 2 ml medium were added to the recommended amount of antibody and incubated for 20 min on ice. 2 ml of ice-cold PBS was added before centrifugation at 300×g for 5 min at 4° C. The supernatant was flicked off and the pellet resuspended in 300 μl ice cold PBS. Cells from each sample were stained with antibodies to HLA-DR, CD40, CD80, CD83, CD86 and isotype matched control antibodies. Where cell viability was also measured, […] of 7AAD was added immediately prior to analysis. Cells were analysed by flow cytometry using a Epics XL (Beckman Coulter, High Wycombe, UK.) and the EXPO32 analysis software (Beckman Coulter).
(A flow cytometer gives signals particle by particle.)

Data set [4] relates to HepG2 cells. Put plainly: Adenoviral transduction of HepG2 cells. The settings on record: 10,000 particles per cell in OptiMEM; listed as peptide A. It counts as cell-based, human. On the procedure: Day 6 dendritic cells (see Example 1(v) above), or mouse bone marrow derived dendritic cells or mouse Sca1+ve stem cells, see (i) and (ii) above, were plated at 5×10^4 cells per well in a 48 well plate in 500 μl complete medium and allowed to settle for 3 hours at 37° C. Transductions were carried out in complete media, with virus being added at 100,000 viral particles/cell for 24 hours. Cells were harvested by scraping, spun down at 650 g (2000 rpm) for 5 min, resuspended in 300 μl PBS, and kept on ice before analysis. Viral transduction as determined by percentage of GFP positive cells was measured by FACS analysis. To measure percentage viability, 10 μl of 7-amino-actinomycin D (7AAD; Sigma, Poole, Dorset) was added immediately prior to analysis. Viral transduction of macrophages was carried out at 10,000 particles/cell in medium containing 2.5% FCS. […] Cells were then washed twice in PBS, trypsinised, triplicate wells pooled, spun down at 350×g for 5 min and resuspended in 300 μl PBS before analysis by flow cytometry where cell viability was to be measured, 10 μl 7AAD was added just prior to analysis.
For transduction of these other cell types, cells were seeded overnight at 5×10^4 cells per well in 24 well plates in the appropriate media. […] Where cell viability was to be measured, 10 μl 7-amino-actinomycin D (7AAD; Sigma, Poole, Dorset) was added just prior to analysis. […]

The test system of data set [5] is primary mouse dendritic cells. Put plainly: Adenoviral transduction of mouse dendritic cells. It counts as cell-based. The settings on record: bone marrow derived DCs. On the procedure:
Mouse dendritic cells were prepared from whole bone marrow flushed from the marrow cavities of the femur and tibia of 5-7 week old A/J mice and cultured in Hepes buffered RPMI+Glutamax (InVitrogen, Paisley, U. K.) supplemented with 10% FCS, penicillin/streptomycin and 20 ng/ml recombinant GM-CSF. Cytokines were added to the same concentration on day 3 and the dendritic cells isolated from the floating cell fraction by MACs CD11c microbeads (Miltenyi Biotec, Bisley, U. K.) on day 6.
as §1

In turn, “SHVKLNS (Synthetic peptide binding to dendritic cells)” yielded a Transduction efficiency in data set [1] of 5.4%. Further, in data set [2] (complete medium, 24 hours, donor A), the “Transduction (% GFP positive cells), donor A” value is given as 64.2%. Besides, the “Transduction (% GFP positive cells), donor B” value in data set [2] (complete medium, 24 hours, donor B) is reported as 78.9%. Also, the “Percentage cell death, donor A” value in data set [2] (donor A, 7AAD) is on record as “(12.0) %”. In addition, the “Percentage cell death, donor B” value in data set [2] (donor B, 7AAD) was “(13.3) %”. In data set [3], this substance yielded a CD40 positive cells of 15.6%, a CD80 positive cells of 16.5%, a CD83 positive cells of 24.6% and a CD86 positive cells of 98.4%. Also, the HLA-DR positive cells in data set [3] was determined as 58.1%. The “Transduction, % cells transduced” value in data set [4] was 88.5%. Besides, the Transduction efficiency in data set [5] stood at 71.7%.
